Measured values taken from patent US5126348A, “Bioavailability enhancers” (priority 1989, dated 1992).
Like-named read-outs stand apart in the source and are kept apart here.

Tests used:
[1] = Theophylline blood levels as a function of time after oral administration, with and without nicotinic acid (Example 1)
Source text: FIG. 1 is a graph showing theophylline blood levels as a function of time after administration, comparing theophylline in combination with nicotinic acid with theophylline alone.

[2] = cited from earlier work
[3] = cited from earlier work; remark: listed apart in the source
[4] = cited from earlier work; remark: listed apart in the source
[5] = parameters: species or system beagle dog; conditions: dog, in vivo
[6] = in vivo
Source text: Venous blood samples were taken at time intervals listed below. […] After administration to the human volunteer, blood samples were taken at the same time intervals as the previous test. Relative salicylic acid concentrations of the samples were compared using fluorescence units as determined by spectrofluorometer.

With Cn1c(=O)c2[nH]cnc2n(C)c1=O [Theophylline, theophylline] the concentration at 29 min ([1]; human, in vivo, po, 300 mg) was < 500 ng/mL, the concentration at 1.05 h ([1]; human, in vivo, po, 300 mg) was 2200 ng/mL and the concentration at 1.55 h ([1]; human, in vivo, po, 300 mg) was 4400 ng/mL. The concentration at 121 min ([1]; human, in vivo, po, 300 mg) was 5300 ng/mL, the concentration at 2.5 h ([1]; human, in vivo, po, 300 mg) was 7000 ng/mL and the concentration at 184 min ([1]; human, in vivo, po, 300 mg) was 7200 ng/mL. The “Blood levels of theophylline” value ([1]; time after administration 0, oral, 300 mg theophylline, with or without 100 mg niacin) was < 50 ng/mL.

For CC(C)NCC(O)COc1cccc2ccccc12 (stereo not shown) [propranolol], the bioavailability with hydralazine [2] is given as “increased bioavailability”.

In the case of O=C(O)c1cccnc1 [nicotinic acid], the toxicity ([3]; even at high dosages) is listed as “relatively harmless”, the “low density lipids and cholesterol in the blood” value ([3]; high doses (3-6 g/day)) is listed as “lowers” and the peripheral vascular resistance ([3]; high doses (3-6 g/day)) is listed as “decreases”. For the same compound, the “stroke volume of the heart” value ([3]; high doses (3-6 g/day)) was “increases”, the tolerated dosage ([3]; human, in vivo) was “up to 6 grams per day” and the “effects on blood pressure” value ([3]; in vivo) was “only minor effects”. The “heart rate and cardiac output” value ([3]; in vivo) was “increases”, the peripheral blood flow ([3]; in vivo) was “increases” and the “flushing effect with acetylsalicylic acid” value ([3]; with acetylsalicylic acid) was “reduced”. The “absorption with food ingestion” value [4] was “not affected”.

For NC(=O)c1cccnc1 [niacinamide], the vasodilation or flushing ([3]; niacinamide form) is listed as “does not cause the vasodilation or flushing”.

With CC(=O)Oc1ccccc1C(=O)O [ASA, acetylsalicylic acid] the “absorption induced by reserpine” value [5] was “near-complete absorption”, the “elimination kinetics, reserpine-treated vs. non-pretreated dogs” value [5] was “similar” and the “plasma concentration of SA, reserpine-treated vs. non-pretreated dogs” value [5] was “considerably higher at each time interval”. The “time of peak plasma concentrations of SA, reserpine-treated vs. non-pretreated dogs” value [5] was “at the same time in both tests”, the “% of maximum concentration” value ([5]; 10 min) was 24% and the “plasma SA concentration” value ([5]; 10 min) was 19.9 µg/mL. The “% of maximum concentration” value ([5]; 20 min) was 47%, the “% of maximum concentration” value ([5]; 30 min) was 70% and the “plasma SA concentration” value ([5]; 60 min) was 72.8 µg/mL. The “% of maximum concentration” value ([5]; 120 min) was 100%, the “plasma SA concentration (max)” value ([5]; 120 min) was 81.4 µg/mL and the “Total area under the plasma level curve, increase over non-pretreated dogs” value ([5]; 480 min) was 13.2%. For the same compound, the “total AUC, increase” value ([5]; iv) was 14.5%, the “% of Dose of ASA Absorbed (using IV ASA as 100% absorption)” value ([5]; po) was 87.5% and the “bioavailability of aspirin with nicotinic acid” value [6] was “enhanced”.
